Common to all, as to test: DTP human tumour cell line panel, 48 h
In assay [1] the test system is T-47D breast.
Assay [2] relates to HOP-92 NSCLC.
For assay [3], the system named is PC-3 prostate.
For assay [4], the system named is IGROV1 ovarian.
In assay [5] the test system is BT-549 breast.
The subject of assay [6] is MCF7 breast.

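Following 48 hours of exposure in 96-well plates, responses at five concentrations were used to interpolate endpoints linearly. The concentration for 50% growth inhibition is given as GI50. At the TGI there is no net growth.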

For `Nc1nc(SCC(=O)O)[nH]c(=O)c1N`, the TGI in assay [1], in assay [2], in assay [3], in assay [4], in assay [5] and in assay [6] was more than 100 µM in each case.

For `Clc1ccc(Nc2ccnc(NCCNc3ccnc4cc(Cl)ccc34)n2)cc1`, the GI50 in assay [1] was 1.15 µM; in assay [2], 126 nM; in assay [3], 1.19 µM; in assay [4], 1.43 µM; in assay [5], 1.5 µM; in assay [6], 1080 nM. Also, the TGI stood at 3.05 µM in assay [1]; 2 µM in assay [2]; 3.15 µM in assay [3]; 3.12 µM in assay [4]; 3.2 µM in assay [5]; 2.59 µM in assay [6].

As to `C=C(CN1CCc2ccccc2C1)c1ccc(/C=C/C(=O)Nc2ccccc2N)cc1`, the GI50 was 10.5 µM in assay [1]; 8000 nM in assay [2]; 4.05 µM in assay [3]; 4.46 µM in assay [4]; 10.3 µM in assay [5]; 2370 nM in assay [6]. In addition, the TGI is more than 100 µM in assay [1]; 52.8 µM in assay [2]; more than 100 µM in assay [3]; more than 100 µM in assay [4]; more than 100 µM in assay [5]; more than 100 µM in assay [6].

For the compound `CCN(Cc1ccc(F)cc1F)c1ccc(CO)c(Cl)c1`, the GI50 is 0.105 µM in assay [1]; 1180 nM in assay [2]; 16.3 µM in assay [3]; 0.105 µM in assay [4]; 14.3 µM in assay [5]; 238 nM in assay [6]. In addition, the TGI in assay [1] worked out at 0.701 µM; in assay [2], 16.5 µM; in assay [3] it was 49.2 µM; in assay [4] it was 0.518 µM; in assay [5] it was 34.8 µM; in assay [6] it was 12.6 µM.

Take `Cc1cc(Cl)ccc1NC(=O)/C(Cc1nc2ccc(C(=O)c3ccccc3)cc2[nH]c1=O)=N/NC(=O)c1ccncc1`: the TGI in assay [1], in assay [2], in assay [3], in assay [4], in assay [5] and in assay [6] was more than 100 µM each time.

Take `O=C1CC2(CCCc3sccc32)C(=O)N1` (stereo not given): the TGI in assay [1], in assay [2], in assay [3], in assay [4] and in assay [6] was more than 100 µM each time.

Take `O=C(O)C1CCCN1Cc1c[nH]c2ccccc12` (stereo not given): the TGI in assay [1], in assay [2], in assay [3], in assay [4], in assay [5] and in assay [6] was more than 100 µM in each case.

`O=P(Oc1ccccc1)(Oc1ccccc1)C(O)c1ccccc1` (stereo not given): the GI50 in assay [1] was 25.2 µM; in assay [3] it was 35.8 µM; in assay [4], 37.2 µM; in assay [5] it was more than 100 µM; in assay [6] it was more than 100000 nM. Also, the TGI in assay [1], in assay [3], in assay [4], in assay [5] and in assay [6] was more than 100 µM throughout.

In the case of `CCN(CC)c1ccc2[nH]c3c(C(N)=O)cc(=O)c(=O)c=3oc2c1`, the GI50 is 2.58 µM in assay [1]; 2820 nM in assay [2]; 2.52 µM in assay [3]; 0.31 µM in assay [4]; 1.7 µM in assay [5]; 1680 nM in assay [6]. Besides, the TGI in assay [1] is more than 100 µM; in assay [2] it was 7.83 µM; in assay [3], more than 100 µM; in assay [4] it was 1.24 µM; in assay [5] it was 5.17 µM; in assay [6], more than 100 µM.

Take `COc1cc2c3c(n(CCCO)c(=O)c2cc1OC)-c1cc2c(cc1C3=O)OCO2`: the GI50 in assay [1] was 14.2 µM; in assay [2] it was 226 nM; in assay [3] it was more than 24.7 µM; in assay [4] it was 17.4 µM; in assay [5] it was 2.22 µM; in assay [6], 2940 nM. Moreover, the TGI in assay [1] is more than 100 µM; in assay [2] it was 11.4 µM; in assay [3], more than 81.7 µM; in assay [4] it was more than 100 µM; in assay [5], 49 µM; in assay [6], more than 100 µM.

In the case of `COC(=O)C/C(C)=C/[C@@H](O)[C@H]1O[C@@H]2CC/C(Cl)=C/C/C=C(/C)[C@H](OC(C)=O)CC(=O)O[C@@H]1C2`, the GI50 in assay [3] was 1.08 µM; in assay [4] it was 1.68 µM; in assay [5], 1.89 µM; in assay [6], 4860 nM. For the same compound, the TGI in assay [3] was determined as 4.13 µM; in assay [4], 15.7 µM; in assay [5], 7.73 µM; in assay [6], 15.7 µM.

As to `O=C1NC(=O)C2=C1CCC2O` (stereo not given), the concentration for total growth inhibition (TGI) in assay [1], in assay [2], in assay [3], in assay [4] and in assay [6] was more than 100 µM throughout.

With `O=C(Nc1cccc(C2=NCCN2)c1)c1ccc(OCCCOc2ccc(C(=O)Nc3cccc(C4=NCCN4)c3)cc2)cc1`, in assay [2], the GI50 is 1250 nM and the TGI came to 7 µM. For the same compound, in assay [3], the GI50 is 2.78 µM and the TGI was 8.21 µM.

`COc1cccc2c(Nc3ccc(C(=O)NCCNCCO)cc3)cc(-c3ccccc3)nc12`: the GI50 is 23 µM in assay [1]; 16000 nM in assay [2]; 35.4 µM in assay [3]; 20.4 µM in assay [4]; 37.3 µM in assay [5]. For the same compound, the TGI in assay [1] was 62 µM; in assay [2], 51.4 µM; in assay [3], more than 100 µM; in assay [4] it was 48.7 µM; in assay [5], more than 100 µM.

Consider `O=C(Oc1cccc(Nc2ncnc3ccccc23)c1)c1ccccc1Cl`, for which the GI50 is 29.2 µM in assay [1]; 17.8 µM in assay [3]; 14.9 µM in assay [4]; 24.8 µM in assay [5]; 11700 nM in assay [6]. Besides, the TGI in assay [1] was more than 100 µM; in assay [3] it was 45.9 µM; in assay [4], more than 100 µM; in assay [5], 62.3 µM; in assay [6], 37.1 µM.

Values taken from PubChem BioAssay (NCI).
